Results taken from patent publication US6936602B1, “Benzazepine derivatives, process for the preparation of the same and uses thereof” (Takeda Chemical Industries, Ltd., priority 1999, dated 2005).

Legend:
[1] = biological target: T1, human CCR5 (Homo sapiens, UniProt P51681); assay: Evaluation of test compounds based on CCR5 antagonistic activity: inhibition of [125I]-RANTES binding to CCR5/CHO cells; conditions: Test Compound 1 μM, 100 pM [125I]-RANTES, room temperature for 40 minutes; for inhibition at 1 µM: read-out: Inhibitory Rate (%)
T1 construct: expressed in transfected cells
T1 sequence (P51681 whole entry): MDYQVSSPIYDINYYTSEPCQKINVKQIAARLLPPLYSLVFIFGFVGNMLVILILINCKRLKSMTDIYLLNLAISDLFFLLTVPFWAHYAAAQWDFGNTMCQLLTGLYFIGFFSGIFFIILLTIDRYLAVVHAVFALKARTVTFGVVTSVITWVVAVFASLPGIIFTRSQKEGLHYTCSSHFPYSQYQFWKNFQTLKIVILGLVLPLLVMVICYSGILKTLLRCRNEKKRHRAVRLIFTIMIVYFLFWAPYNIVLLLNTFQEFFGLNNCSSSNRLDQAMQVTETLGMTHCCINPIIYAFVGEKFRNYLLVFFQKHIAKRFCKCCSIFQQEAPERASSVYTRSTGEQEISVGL
Method: Cloning of CCR5 gene was carried out by a PCR method from human spleen cDNA. With using 0.5 ng of spleen cDNA (Toyobo, QUICK-Clone cDNA) as template, PCR was performed in DNA Thermal Cycler 480 (Perkin-Elmer) (reaction conditions: 30 cycles of 95° C. for 1 minute, 60° C. for 1 minute, and 75° C. for 5 minutes) by adding each 25 pmol of primers of a primer set, • SEQ ID NO.: 1 described in Test Example (1) of WO 99/32100 [length of sequence: 34; type of sequence: nucleic acid; strandedness: single; topology: straight; kind of sequence: other nucleic acid synthetic DNA, and • SEQ ID NO.: 2 described in Test Example (1) of WO 99/32100 [length of sequence: 34; type of sequence: nucleic acid; strandedness: single; topology: straight; kind of sequence: other nucleic acid synthetic DNA which were designed referring to nucleotide sequence of CCR5 gene reported by Samson et. al. (Biochemistry, 35(11), 3362-3367 (1996)) and by using TaKaRa EX Taq (Takara Shuzo). The resultant PCR product was subjected to agarose gel electrophoresis to collect about 1.0 kb DNA fragment, which was subjected to Original TA Cloning Kit (Funakoshi) to carry out cloning of CCR5 gene. (2) Preparation of Plasmid for Expression of Human CCR5
The plasmid obtained in the above (1) was digested with restriction enzymes XbaI (Takara Shuzo) and BamHI (Takara Shuzo) and subjected to agarose gel electrophoresis to collect about 1.0 kb DNA fragment.
The DNA fragment was mixed with plasmid pcDNA3.1 (Funakoshi) for expression in animal cells, said plasmid being digested with XbaI and BamHI, and they were ligated with DNA Ligation Kit Ver.2 (Takara Shuzo). The resulting plasmid was subjected to transformation of competent cell of E. coli JM109 (Takara Shuzo) to obtain plasmid pCKR5.
CHO-K1 cells were grown in 750 ml of tissue culture flask (Becton Dickinson) using Ham's F12 medium (Nihon Pharmaceutical) containing 10% fetal calf serum (Life Tech Oriental) and taken off with 0.5 g/L trypsin-0.2 g/L EDTA (Life Tech Oriental). The cells were washed with PBS (Life Tech Oriental), centrifuged (1000 rpm, 5 minutes), and suspended in PBS. With using Gene Pulser (Bio-Rad Laboratories), DNA was introduced into the cells under the conditions shown below. That is, to the cuvette of 0.4 cm gap were added 8×10^6 cells and 10 μg of plasmid pCKR5 for expression of human CCR5, and electroporation was carried out under 0.25 kV of voltage and 960 μF of capacitance. The cells were transferred into Ham's F12 medium containing 10% fetal calf serum, and cultivated for 24 hours. The cells were again taken off and centrifuged, and suspended in Ham's F12 medium containing 10% fetal calf serum and 500 μg/ml of geneticin (Life Tech Oriental). The suspension was diluted to give 10^4 cells/ml of the suspension, which was inoculated on a 96 well plate (Becton Dickinson) to give geneticin resistant cells.
The resulting geneticin resistant cells were cultivated in 96 well plate (Becton Dickinson), and cells expressing CCR5 were selected from the geneticin resistant cells. That is, in assay buffer (Ham's F12 medium containing 0.5% BSA and 20 mM HEPES (Wako Pure Chemical, pH7.2)) to which was added 200 pM of [^125I]-RANTES (Amersham) as a ligand, a binding reaction was carried out at room temperature for 46 minutes, and the buffer was washed with cooled PBS. To the buffer was added 50 μl/well of 1M NaOH, and the mixture was stirred. Radioactivity was determined with a y-counter to select CCR5/CHO cells which specifically bind to the ligand.
The CCR5/CHO cells were inoculated on 96 well microplate (5×10^4 cells/well) and cultivated for 24 hours. The medium was removed by means of suction, and to each well was added an assay buffer containing Test Compound (1 μM) and then 100 pM of [^125I]-RANTES (Amersham) as a ligand. A binding assay was carried out at room temperature for 40 minutes, and an assay buffer was removed by means of suction. […]

Row | Inhibitory Rate (%) [1] [%] | SMILES | melting point [°C] | inhibition at 1 µM [1] [%]
1 | – | CCOCCCOc1ccc(-c2ccc3c(c2)C=C(C(=O)Nc2ccc(CN(C)C4CCOCC4)cc2)CCN3C=O)cc1 [Compound 2, 7-[4-(3-ethoxypropoxy)phenyl]-1-formyl-N-[4-[[N-methyl-N-(tetrahydro-2H-pyran-4-yl)amino]methyl]phenyl]-2,3-dihydro-1H-1-benzazepine-4-carboxamide] | 166 to 169 | 96
2 | – | CCOc1cc(-c2ccc3c(c2)C=C(C(=O)Nc2ccc(CN(C)C4CCOCC4)cc2)CCN3C=O)ccc1OCCOC(C)C [Compound 23, 7-[3-ethoxy-4-(2-propoxy)ethoxyphenyl]-1-formyl-N-[4-[[N-methyl-N-(tetrahydro-2H-pyran-4-yl)amino]methyl]phenyl]-2,3-dihydro-1H-1-benzazepine-4-carboxamide] | 117 to 119 | 97
3 | – | CCCOCCOc1ccc(-c2ccc3c(c2)C=C(C(=O)Nc2ccc(CN(C)C4CCOCC4)cc2)CCN3CCC)cc1 [Compound 26, N-[4-[[N-methyl-N-(tetrahydro-2H-pyran-4-yl)amino]methyl]phenyl]-7-[4-(2-propoxyethoxy)phenyl]-1-propyl-2,3-dihydro-1H-1-benzazepine-4-carboxamide] | 128 to 130 | 100
4 | – | CCCCOCCOc1ccc(-c2ccc3c(c2)C=C(C(=O)Nc2ccc(CN(C)C4CCOCC4)cc2)CCN3CCC)cc1 [Compound 27, 7-[4-(2-butoxyethoxy)phenyl]-N-[4-[[N-methyl-N-(tetrahydro-2H-pyran-4-yl)amino]methyl]phenyl]-1-propyl-2,3-dihydro-1H-1-benzazepine-4-carboxamide] | 122 to 124 | 100
5 | – | CCCCOCCOc1ccc(-c2ccc3c(c2)C=C(C(=O)Nc2ccc(CN(C)C4CCOCC4)cc2)CCN3Cc2ccccc2)cc1 [Compound 33, 1-benzyl-7-[4-(2-butoxyethoxy)phenyl]-N-[4-[[N-methyl-N-(tetrahydro-2H-pyran-4-yl)amino]methyl]phenyl]-2,3-dihydro-1H-1-benzazepine-4-carboxamide] | 127 to 131 | 98
6 | – | CCCCOCCOc1ccc(-c2ccc3c(c2)C=C(C(=O)Nc2ccc(CN(C)C4CCOCC4)cc2)CCN3CC2CC2)cc1 [Compound 35, 7-[4-(2-butoxyethoxy)phenyl]-1-cyclopropylmethyl-N-[4-[[N-methyl-N-(tetrahydro-2H-pyran-4-yl)amino]methyl]phenyl]-2,3-dihydro-1H-1-benzazepine-4-carboxamide] | 92 to 94 | 100
7 | – | CCCCOCCOc1ccc(-c2ccc3c(c2)C=C(C(=O)Nc2ccc(CN(C)C4CCOCC4)cc2)CCN3c2csc(C)n2)cc1 [Compound 45, 7-[4-(2-butoxyethoxy)phenyl]-1-(2-methylthiazol-4-yl)-N-[4-[[N-methyl-N-(tetrahydro-2H-pyran-4-yl)amino]methyl]phenyl]-2,3-dihydro-1H-1-benzazepine-4-carboxamide] | 115 to 123 | 100
8 | – | C=CCN1CCC(C(=O)Nc2ccc(CN(C)C3CCOCC3)cc2)=Cc2cc(-c3ccc(OCCOCCC)cc3)ccc21 [Compound 49, 1-allyl-N-[4-[[N-methyl-N-(tetrahydropyran-4-yl)amino]methyl]phenyl]-7-(4-propoxyethoxyphenyl)-2,3-dihydro-1-benzazepine-4-carboxamide] | 110 to 111 | 100
9 | – | C=CCN1CCC(C(=O)Nc2ccc(CN(C)C3CCOCC3)cc2)=Cc2cc(-c3ccc(OCCOCCCC)cc3)ccc21 [Compound 50, 1-allyl-7-(4-butoxyethoxyphenyl)-N-[4-[[N-methyl-N-(tetrahydropyran-4-yl)amino]methyl]phenyl]-2,3-dihydro-1-benzazepine-4-carboxamide] | 103 to 104 | 100
10 | – | CCCCOCCOc1ccc(-c2ccc3c(c2)C=C(C(=O)Nc2ccc(CN(C)C4CCOCC4)cc2)CCN3Cc2ccsc2)cc1 [Compound 58, 7-(4-butoxyethoxyphenyl)-N-[4-[[N-methyl-N-(tetrahydropyran-4-yl)amino]methyl]phenyl]-1-(3-thienylmethyl)-2,3-dihydro-1-benzazepine-4-carboxamide] | 122 to 123 | 99
11 | – | CCCCOCCOc1ccc(-c2ccc3c(c2)C=C(C(=O)Nc2ccc(CN(C)C4CCCOC4)cc2)CCN3Cc2cnn(CC)c2)cc1 (stereo not drawn) [Compound 79, 7-(4-butoxyethoxyphenyl)-1-[(1-ethylpyrazol-4-yl)methyl]-N-[4-[[N-methyl-N-(tetrahydropyran-5-yl)amino]methyl]phenyl]-2,3-dihydro-1-benzazepine-4-carboxamide] | – | 100
12 | – | CCCOCCOc1ccc(-c2ccc3c(c2)C=C(C(=O)Nc2ccc(CN(C)C4CCOCC4)cc2)CCN3CC(C)C)cc1 [Compound 84, 1-isobutyl-N-[4-[N-methyl-N-(tetrahydropyran-4-yl)aminomethyl]phenyl]-7-[4-(2-propoxyethoxy)phenyl]-2,3-dihydro-1-benzazepine-4-carboxamide] | – | 97
13 | 100 | CCCCOCCOc1ccc(-c2ccc3c(c2)C=C(C(=O)Nc2ccc(CN(C)C4CCOCC4)cc2)CCN3CC(C)C)cc1 [Compound 85] | – | –
14 | 100 | CCCCOCCOc1ccc(-c2ccc3c(c2)C=C(C(=O)Nc2ccc(CN(C)C4CCOCC4)cc2)CCN3Cc2cncs2)cc1 [Compound 98] | – | –
15 | – | CCCCOCCOc1ccc(-c2ccc3c(c2)C=C(C(=O)Nc2ccc(CN(C)C4CCOCC4)cc2)CCN3Cc2nnnn2C)cc1 [Compound 101, 7-[4-(2-butoxyethoxy)phenyl]-N-[4-[N-methyl-N-(tetrahydropyran-4-yl)aminomethyl]phenyl]-1-(1-methyltetrazol-5-ylmethyl)-2,3-dihydro-1-benzazepine-4-carboxamide] | 132 to 135 | 100
16 | – | CCCCOCCOc1ccc(-c2ccc3c(c2)C=C(C(=O)Nc2ccc(CN(C)C4CCOCC4)cc2)CCN3Cc2nnn(C)n2)cc1 [Compound 102, 7-[4-(2-butoxyethoxy)phenyl]-N-[4-[N-methyl-N-(tetrahydropyran-4-yl)aminomethyl]phenyl]-1-(2-methyltetrazol-5-ylmethyl)-2,3-dihydro-1-benzazepine-4-carboxamide] | – | 100
17 | – | CCCCOCCOc1ccc(-c2ccc3c(c2)C=C(C(=O)Nc2ccc(CN(C)C4CCOCC4)cc2)CCN3CCCOC)cc1 [Compound 104, 7-[4-(2-butoxyethoxy)phenyl]-1-(3-methoxypropyl)-N-[4-[[N-methyl-N-(tetrahydropyran-4-yl)amino]methyl]phenyl]-2,3-dihydro-1H-1-benzazepine-4-carboxamide] | 87 to 90 | 98
18 | – | CCCCOCCOc1ccc(-c2ccc3c(c2)C=C(C(=O)Nc2ccc(CN(C)C4CCOCC4)cc2)CCN3Cc2nnn(CC)n2)cc1 [Compound 112, 7-[4-(2-butoxyethoxy)phenyl]-1-(2-ethyltetrazol-5-ylmethyl)-N-[4-[N-methyl-N-(tetrahydropyran-4-yl)aminomethyl]phenyl]-2,3-dihydro-1-benzazepine-4-carboxamide] | – | 100
